Test results published in ChEMBL document CHEMBL5505981, “Design, synthesis and biological evaluation of novel 1,2,4a,5-tetrahydro-4H-benzo[b][1,4]oxazino[4,3-d][1,4]oxazine-based AAK1 inhibitors with anti-viral property against SARS-CoV-2” (Eur J Med Chem, 2024).

Key:
[1] = biological target: T1, AP2-associated protein kinase 1 (Homo sapiens, UniProt Q2M2I8); assay type: cell-based
HEK293 [2] = assay type: toxicity, cell-based; details: human, hek293, 48 h, 30 µM
[3] = biological target: T1, AP2-associated protein kinase 1; assay: Inhibition of AAK1 (unknown origin)
HEK293 [4] = assay type: toxicity, cell-based; details: human, hek293, 48 h, 6 µM
Dengue virus = assay: Antiviral activity against DENV infected in human Huh-7 cells; assay type: functional, organism-based
[5] = Cytotoxicity against human Huh-7 cells; assay type: toxicity, cell-based
Ebolavirus = assay: Antiviral activity against EBOV; assay type: functional, organism-based; details: Orthoebolavirus
HEK293 [6] = assay type: toxicity, cell-based; details: human, hek293, 48 h, 20 µM
[7] = Cytotoxicity against human Huh7.5 cells; assay type: toxicity, cell-based, Huh-7.5

T1 sequence (Q2M2I8 whole entry): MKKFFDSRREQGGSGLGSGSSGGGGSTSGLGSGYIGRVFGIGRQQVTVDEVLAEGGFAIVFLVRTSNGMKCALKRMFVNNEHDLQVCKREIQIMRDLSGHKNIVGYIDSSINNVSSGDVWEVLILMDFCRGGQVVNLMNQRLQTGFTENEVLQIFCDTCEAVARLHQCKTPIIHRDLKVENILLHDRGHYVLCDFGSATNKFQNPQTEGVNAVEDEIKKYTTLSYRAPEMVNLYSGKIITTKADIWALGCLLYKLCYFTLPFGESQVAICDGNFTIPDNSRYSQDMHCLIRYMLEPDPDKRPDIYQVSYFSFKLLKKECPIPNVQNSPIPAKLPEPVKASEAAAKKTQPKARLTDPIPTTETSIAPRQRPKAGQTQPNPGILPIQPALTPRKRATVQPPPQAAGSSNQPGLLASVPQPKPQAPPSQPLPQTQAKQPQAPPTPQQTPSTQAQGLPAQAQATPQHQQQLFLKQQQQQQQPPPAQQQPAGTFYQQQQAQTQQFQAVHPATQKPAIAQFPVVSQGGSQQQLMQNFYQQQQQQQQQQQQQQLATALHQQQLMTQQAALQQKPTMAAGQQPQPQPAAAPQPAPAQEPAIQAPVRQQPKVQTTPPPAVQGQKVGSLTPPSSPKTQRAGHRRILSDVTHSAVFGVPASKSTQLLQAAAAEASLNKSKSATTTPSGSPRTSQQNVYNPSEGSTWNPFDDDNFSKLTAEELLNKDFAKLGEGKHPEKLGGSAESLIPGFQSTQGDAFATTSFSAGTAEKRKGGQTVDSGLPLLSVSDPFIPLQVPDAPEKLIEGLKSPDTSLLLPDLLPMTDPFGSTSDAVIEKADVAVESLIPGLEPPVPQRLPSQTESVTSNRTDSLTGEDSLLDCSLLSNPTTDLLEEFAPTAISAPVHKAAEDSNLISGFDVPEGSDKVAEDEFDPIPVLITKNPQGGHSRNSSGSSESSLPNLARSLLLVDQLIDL

SMILES: NCCCC#Cc1c[nH]c2ncc(-c3ccc4c(c3)OCC3COCCN43)cc12 (stereo not given)
- IC50 [1]: > 500 nM

SMILES: CCN(CC)S(=O)(=O)Nc1cccc(-c2ccc3c(NC(=O)C4CC4)n[nH]c3c2)c1
- Activity (HEK293 [2]): Non-Toxic

SMILES: CC(C)C[C@](C)(N)COc1ccc(-c2ccnc(C(F)F)c2)nc1C(F)F [PILAVAPADIN]
- IC50 [3]: 1.2 nM
- Activity (HEK293 [2]): Non-Toxic

SMILES: C(#Cc1c[nH]c2ncc(-c3ccc4c(c3)OCC3COCCN43)cc12)c1ccccc1 (stereo not given)
- IC50 [1]: > 500 nM

SMILES: C(#Cc1c[nH]c2ncc(-c3ccc4c(c3)OCC3COCCN43)cc12)c1cccnc1 (stereo not given)
- Activity (HEK293 [4]): Toxic

SMILES: COc1ccc(-c2cnc3[nH]cc(C#Cc4cccnc4)c3c2)cc1OC
- IC50 [1]: 7.57 nM
- EC50 (Dengue virus): 720 nM
- Activity (HEK293 [4]): Toxic

SMILES: N#Cc1ccc(-c2cnc3[nH]cc(NC(=O)c4cccnc4)c3c2)cc1
- CC50 [5]: > 50000 nM
- EC50 (Dengue virus): 8000 nM
- EC50 (Ebolavirus): > 10000 nM

SMILES: CCN(CC)CCNC(=O)c1c(C)[nH]c(/C=C2\C(=O)Nc3ccc(F)cc32)c1C [SUNITINIB]
- Activity (HEK293 [6]): Non-Toxic
- CC50 [5]: 11500 nM
- CC50 [7]: > 10000 nM
